Assay results reported in US6013642A, “Use of estrone derivatives as steroid sulphatase inhibitors” (priority 1994, dated 2000).

Tests used:
[1] = tested on: mouse contact sensitisation model; assay: Cellular infiltrate (anti-CD3 / anti-Mac-1 positive cells) in challenged ears, contact sensitisation; type: in vivo, mice; conditions: Experiment 7, FIG. 10; DHEAS 5 mg/kg days 0 and 5; 24 h following challenge
Procedure: Animals were randomised into 7 groups (n=7-10) and steroids given on days 0 and 5. At 24 h following challenge, ears were removed, fixed and stained with either an anti-CD3 (T-cells) or anti-Mac-1 (monocytes/macrophages) antibody and the number of positive cells counted in 10 random fields.

[2] = tested on: mouse delayed type hypersensitivity model; assay: Delayed type hypersensitivity (SRBC, footpad swelling) in the mouse; type: in vivo; conditions: FIG. 11; 5 mg/kg s.c.; 24 h post challenge
Procedure: 2. Delayed Type Hypersensitivity (DTH)
On day 0, animals were injected intravenously with 10^6 washed SRBC in 0.1 ml saline. Four days later animals were challenged in the right hind footpad with 10^6 washed SRBC in 50 μl saline. Footpad thickness is measured prior to challenge, 24, 48 and 72 hours post challenge using calipers. Footpad swelling is determined as the difference in thickness prior and post challenge. The data are expressed as percentage change from the vehicle treated groups given sensitisation and challenge.
Animals were randomised into 10 groups (n=7-8) and steroids given on day 0 and 4.
Steroids were given on day 0 and 3 subcutaneously. Response at 24 h post challenge. Results given as mean±sem. $, *p<0.05 ANOVA.

[3] = tested on: mouse contact sensitisation model; assay: Contact sensitisation (oxazalone, ear swelling) in mice; type: in vivo; conditions: for increase in ear thickness (steroid alone): 100 μg/mouse s.c. days 0, 4 and 5; for normal ear swelling (steroid alone): Experiment 4, FIG. 7; for normal ear swelling (steroid alone) / ear swelling response (steroid alone): 5 mg/kg s.c. days 0 and 4
Procedure: 1. Contact Sensitisation (CS)
On day 0, mice were painted on their shaved right flank with 50 μl 2.5% oxazalone or vehicle (acetone 4:1 olive oil). On day 5 animals were challenged on their dorsal right ear surface with 25 μl of either 0.75% or 0.25% oxazalone. Prior to ear challenge, and 24, 48 and 72 hour post challenge ear thickness was measured using an engineer's micrometers. Ear swelling is determined as the difference in thickness prior and post challenge. The data are expressed as percentage change from the vehicle treated groups given sensitisation and challenge.
DHEA, DHEAS were administered at various times, generally at time of sensitisation (day 0) and time of challenge (day 3 or 4-DTH model, day 4 or 5-(CS-model) in order to obtain an augmentation of the immune response above non-steroid treated animals.
Different doses of the inhibitors have been used, and compared to the effect of dexamethasone as potential immunosuppressive/anti-inflammatory agents.

carrageenan pleurisy = assay: Carrageenan pleurisy; type: in vivo, Wistar Rats; conditions: FIG. 14; DEX 1 mg/kg p.o. at T=-1 h; six hours
Procedure: Wistar Rats were anaesthetised and given intra-pleural injections of 0.5% carrageenan in saline at time 0. Six hours later the animals were killed and pleural cavity lavaged with 1 ml. citrated saline. Volume of fluid exudate and exudate cell concentration were measured. Animals were randomised to 5 treatment groups (n=6).

[4] = Experiment 1, FIG. 4, 48 post challenge
[5] = Experiment 2, FIG. 5, 100 μg/mouse s.c. days 0 and 5, 24 h post-challenge
[6] = Metabolites Experiment 3, FIG. 17

Row | SMILES | foot swelling response (steroid alone) [2] | increase in ear thickness (steroid alone) [3, 4] | ear swelling response [3, 5] | normal ear swelling (steroid alone) [3] | ear swelling response (steroid alone) [3, 6] | also measured
1 | C[C@]12CC[C@H](OS(=O)(=O)O)CC1=CC[C@@H]1[C@@H]2CC[C@]2(C)C(=O)CC[C@@H]12 [DHEAS, DHEA sulphate] | clearly pro-immune (or pro-inflammatory) | augmented the normal increase in ear thickness | significantly augmented the response | augmented the normal ear swelling | stimulatory response | immune and inflammatory cell infiltrate into challenged ears [1]: can augment both immune and inflammatory cell infiltrate into challenged ears; anti-glucocorticoid effect on ear swelling ([3]; Experiment 3, FIG. 6, DHEAS 0.0005-50 mg/kg with corticosterone 5 mg/kg s.c. days 0 and 4): functional anti-glucocorticoid effect
2 | CN(C)S(=O)(=O)Oc1ccc2c(c1)CC[C@@H]1[C@@H]2CC[C@]2(C)C(=O)CC[C@@H]12 [CT 2210, Estrone-3-0-(N,N-dimethyl)sulphamate] |  |  |  |  |  | ear swelling, inhibitor alone ([3]; Experiment 1, FIG. 4, 2 mg/mouse s.c. days 0, 4 and 5, 48 post challenge): able to attenuate the ear swelling seen in the absence of DHEA and DHEAS; reversal of stimulatory effects of DHEA and DHEAS on ear swelling ([3]; Experiment 1, FIG. 4, inhibitor 2 mg/mouse with DHEA or DHEAS 100 μg/mouse s.c. days 0, 4 and 5, 48 post challenge): able to reverse the stimulatory effects of either DHEA and DHEAS
3 | CC12CCC(OS(=O)(=O)O)CC1=CCC1C2CCC2(C)C(O)CCC12 (stereo not drawn) [AEDS] |  |  |  |  | stimulatory response | ear swelling response ([3]; Metabolites Experiment 2, FIG. 16, AEDS 0.0005-5 mg/kg s.c. days 0 and 4): can augment the ear swelling response; dose for augmentation of ear swelling, less than seen with DHEAS ([3]; Metabolites Experiment 2, FIG. 16, relative to DHEAS): at least 1000 fold; substrate for the sulphatase enzyme in vivo [3, 6]: can serve as a physiological substrate for the sulphatase enzyme in vivo
4 | C[C@@H]1C[C@H]2[C@@H]3CCC4=CC(=O)C=C[C@]4(C)[C@@]3(F)[C@@H](O)C[C@]2(C)[C@@]1(O)C(=O)CO [Dexamethasone, dexamethasone] |  | reduced the response | inhibited | inhibited |  | fluid leakage (exudate) (carrageenan pleurisy): can completely inhibit fluid leakage; reduction of cellular influx (carrageenan pleurisy): 68%; degree of ear swelling ([3]; Experiment 5, FIG. 8, DEX 5 mg/kg s.c. days 0 and 4, 24 h): inhibited the degree of ear swelling
5 | C[C@]12CC[C@H](O)CC1=CC[C@@H]1[C@@H]2CC[C@]2(C)C(=O)CC[C@@H]12 [DHEA, Dehydroepiandrosterone] | clearly pro-immune (or pro-inflammatory) | augmented the normal increase in ear thickness | significantly augmented the response | augmented the normal ear swelling |  | ear swelling response ([3]; Metabolites Experiment 1, FIG. 15, DHEA 0.005-5 mg/kg, AED 0.05-5 mg/kg s.c. days 0 and 4): can augment the ear swelling response
